Laboratory results as given in ChEMBL document CHEMBL1137126, “Aza-boronic acids as non-beta-lactam inhibitors of AmpC-beta-lactamase” (Bioorg Med Chem Lett, 2004).
Values after ≈ are worked out from the molar mass of the structure shown.

Experiments:
Beta-lactamase = Beta-lactamase (Escherichia coli K-12, UniProt P00811); experiment: Apparent inhibition constant against Escherichia coli AmpC beta-lactamase
Escherichia coli [1] = experiment: Minimum inhibitory concentration of compound against Escherichia coli K12AmpC-Ent
Citrobacter freundii = experiment: Minimum inhibitory concentration of compound against Citrobacter freundii derepressed 91/98-2; format: functional
Enterobacter cloacae = experiment: Minimum inhibitory concentration of compound against Enterobacter cloacae derepressed 12991 ED; format: functional
Pseudomonas aeruginosa = experiment: Minimum inhibitory concentration of compound against Pseudomonas aeruginosa derepressed 88/98; format: functional
Escherichia coli [2] = experiment: Minimum inhibitory concentration of compound against Escherichia coli derepressed

Sequence of Beta-lactamase (P00811 whole entry): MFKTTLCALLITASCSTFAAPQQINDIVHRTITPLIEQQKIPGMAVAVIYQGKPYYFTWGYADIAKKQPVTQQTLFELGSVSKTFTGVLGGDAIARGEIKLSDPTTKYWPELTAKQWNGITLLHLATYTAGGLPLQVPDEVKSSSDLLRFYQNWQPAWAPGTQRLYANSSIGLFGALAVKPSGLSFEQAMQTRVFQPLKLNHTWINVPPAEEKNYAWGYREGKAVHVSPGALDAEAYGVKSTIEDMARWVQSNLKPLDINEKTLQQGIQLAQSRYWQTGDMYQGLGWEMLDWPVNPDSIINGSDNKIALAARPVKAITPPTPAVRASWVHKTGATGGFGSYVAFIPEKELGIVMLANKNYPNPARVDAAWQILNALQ

Ki (Beta-lactamase) [µM] | Structure (SMILES) | other results
0.7 | OB(O)c1cccc(/N=N/c2ccc(O)cc2)c1 | 
1.8 | OB(O)c1cccc(/N=N/c2ccc(/N=N/c3c(O)ccc4ccccc34)cc2O)c1 | 
0.45 | OB(O)c1cccc(/N=N/c2c(O)cc(O)c3ccccc23)c1 | 
3 | OB(O)c1cccc(/N=N/c2cc(Cl)c(O)c(Cl)c2)c1 | 
3.5 | OB(O)c1cccc(/N=N/c2ccccc2O)c1 | 
0.7 | OB(O)c1cccc(/N=N/c2ccc(/N=N/c3c(O)cc(O)c4ccccc34)cc2O)c1 | 
1.5 | O=[N+]([O-])c1cccc(/N=N/c2cccc(B(O)O)c2)c1O | 
0.3 | OB(O)c1cccc(/N=N/c2c(O)ccc3ccccc23)c1 | 
2.7 | Nc1cc(B(O)O)ccc1/N=N/c1cccc(B(O)O)c1 | 
2 | O=S(=O)(O)c1cc(S(=O)(=O)c2cccc(/N=N/c3cccc(B(O)O)c3)c2)cs1 | 
0.9 | OB(O)c1cccc(/N=N/c2ccc(O)c3ccccc23)c1 | 
5 | O=S(=O)(O)c1cc(/N=N/c2cccc(B(O)O)c2)c(O)c2ccccc12 | 
1 | Cc1noc(C)c1/N=N/c1cccc(B(O)O)c1 | 
3 | OB(O)c1cc(/N=N/c2ccc(Br)cc2)ccc1O | 
 | CC(C)(O/N=C(\C(=O)N[C@@H]1C(=O)N2C(C(=O)[O-])=C(C[n+]3ccccc3)CS[C@H]12)c1csc(N)n1)C(=O)O [CEFTAZIDIME] | MIC (Escherichia coli [1]): 64 µg/mL (≈ 117 µM); MIC (Citrobacter freundii): 64 µg/mL (≈ 117 µM); MIC (Enterobacter cloacae): 256 µg/mL (≈ 468 µM); MIC (Pseudomonas aeruginosa): 128 µg/mL (≈ 234 µM); MIC (Escherichia coli [2]): 128 µg/mL (≈ 234 µM)
